Test results published in publication PMC9434700 (Journal of medicinal chemistry, 2022).

System: mGluR2
Details: monkey thalamus, compound 2 0.5 mg/kg iv 10 min before tracer

Q: Which “enhancement of [18F]9 Logan VT after pretreatment” value does the source give for `Cc1c(OCc2cccc(-c3ccc(C(=O)O)cc3)c2)cc2c(c1C)C(=O)C(C1CCCC1)C2` (stereo not shown) [Compound 2, Biphenyl-indanone A] here?
A: Its value is ~ 3.3%.
